The text below walks through data of US10800760B2, “Trk inhibition” (NantBio, Inc., priority 2017, dated 2020).

In the experiment the target is T1, TrkA(h) (Homo sapiens, UniProt P04629).
T1 construct: purchased Millipore (KinaseProfiler Service)
T1 sequence (P04629 33-796): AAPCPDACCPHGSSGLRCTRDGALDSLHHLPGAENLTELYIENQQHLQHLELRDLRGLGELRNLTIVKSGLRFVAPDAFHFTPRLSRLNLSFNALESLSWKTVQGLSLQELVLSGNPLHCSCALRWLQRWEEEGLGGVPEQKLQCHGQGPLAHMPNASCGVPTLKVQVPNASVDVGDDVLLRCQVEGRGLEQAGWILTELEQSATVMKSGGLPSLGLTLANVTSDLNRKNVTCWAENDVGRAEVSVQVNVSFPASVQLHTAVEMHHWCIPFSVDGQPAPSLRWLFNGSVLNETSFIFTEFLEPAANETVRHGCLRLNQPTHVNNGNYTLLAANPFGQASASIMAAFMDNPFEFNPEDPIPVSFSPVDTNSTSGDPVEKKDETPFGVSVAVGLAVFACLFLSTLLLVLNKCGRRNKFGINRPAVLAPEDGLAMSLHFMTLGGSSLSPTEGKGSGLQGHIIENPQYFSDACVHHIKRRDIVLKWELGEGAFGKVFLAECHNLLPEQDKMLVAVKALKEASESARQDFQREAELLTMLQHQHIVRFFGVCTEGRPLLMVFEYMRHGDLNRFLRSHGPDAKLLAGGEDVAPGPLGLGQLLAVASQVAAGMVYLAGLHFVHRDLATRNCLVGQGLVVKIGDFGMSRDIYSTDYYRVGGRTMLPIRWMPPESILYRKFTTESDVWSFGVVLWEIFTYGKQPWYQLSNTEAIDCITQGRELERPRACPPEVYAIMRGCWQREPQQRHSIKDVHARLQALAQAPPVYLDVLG
Briefly: KinaseProfiler (Millipore) radiometric kinase assay, TrkA(h). Format: biochemical. Conditions: compound concentration 1 μM. On the procedure:
The KinaseProfiler™ Service Assay Protocols (Millipore) were used to test the kinase inhibiting activity of the novel compounds from this invention. To do this, the buffer composition was as follows: 20 mM MOPS, 1 mM EDTA, 0.01% Brij-35, 5% Glycerol, 0.1% β-mercaptoethanol, 1 mg/mL BSA. Test compounds were initially dissolved in DMSO at the desired concentration, then serially diluted into the kinase assay buffer. In a final reaction volume of 25 μL, TrkA(h) (5-10 mU) is incubated with 8 mM MOPS pH 7.0, 0.2 mM EDTA, 200 μM LRRASLG (Kemptide), 10 mM MgAcetate and [γ^33P-ATP]. The reaction was initiated by the addition of the MgATP mix. After incubation for 40 minutes at room temperature, the reaction was stopped by addition of 5 μL of a 3% phosphoric acid solution. 10 μL of the reaction was then spotted onto a P30 filtermat and washed three times for 5 minutes in 50 mM phosphoric acid and once in methanol prior to drying and scintillation counting. Wells containing substrate but no kinase and wells containing a phosphopeptide control were used to set 0% and 100% phosphorylation value, respectively.
As to `CC(Nc1cc(Nc2cc(C3CC3)[nH]n2)ncn1)c1ccc(F)cc1Cl` (stereo not drawn) [Example 36], the inhibition at 1 µM came to 101%.

As for `CN1CCN(CC(Nc2cc(Nc3cc(C4CC4)[nH]n3)ncn2)c2ccccc2)CC1` (stereo not drawn) [Example 39], the inhibition at 1 µM is 7%.

Take `C[C@H](Nc1cc(Nc2cc(C3CC3)[nH]n2)ncn1)c1ccc(F)cc1F` [Example 34]: the inhibition at 1 µM came out at 101%.

As to `CC(Nc1cc(Nc2cc(C3CC3)[nH]n2)ncn1)c1c(F)cccc1F` (single isomer, unassigned) [Example 30], the inhibition at 1 µM turned out to be 100%.

With `CC(Nc1cc(Nc2cc(C3CC3)[nH]n2)ncn1)c1ccc(F)cn1` (stereo not drawn) [Example 44, N4-(5-cyclopropyl-1H-pyrazol-3-yl)-N6-(1-(5-fluoropyridin-2-yl)ethyl)pyrimidine-4,6-diamine], the “% Inhibition@ 1 μM (TrkA(h))” value came to 98%.

As to `COc1c(Nc2cc(C3CC3)[nH]n2)ncnc1N[C@@H](C)c1ccc(F)cc1` [Example 25, (S)—N4-(5-cyclopropyl-1H-pyrazol-3-yl)-N6-(1-(4-fluorophenyl)ethyl)-5-methoxypyrimidine-4,6-diamine], the inhibition at 1 µM amounted to 0%.

As to `Cc1cc(Nc2cc(NC(C)c3ccc(F)cc3F)ncn2)n[nH]1` (stereo not drawn) [Example 50], the inhibition at 1 µM worked out at 99%.

As to `CC(c1cc(F)ccc1F)N(C)c1cc(Nc2cc(C3CC3)[nH]n2)ncn1` (stereo not drawn) [Example 42], the inhibition at 1 µM was 95%.

Regarding `CC(Nc1cc(Nc2cc(C3CC3)[nH]n2)ncn1)c1ccc(F)cc1F` (stereo not drawn) [Example 32, N4-(5-cyclopropyl-1H-pyrazol-3-yl)-N6-(1-(2,4-difluorophenyl)ethyl)pyrimidine-4,6-diamine], the inhibition at 1 µM came to 104%.

`CC(Nc1cc(Nc2cc(C3CC3)[nH]n2)ncn1)c1ccc(F)c(Cl)c1` (stereo not drawn) [Example 37]: the inhibition at 1 µM was determined as 97%.

`CC(Nc1cc(Nc2ccn(C3CCOCC3)n2)ncn1)c1ccc(F)cc1F` (stereo not drawn) [Example 49]: the inhibition at 1 µM is 5%.

For the molecule `CN1CCN(c2ccc(CNc3ncnc(Nc4cc(C5CC5)[nH]n4)c3C#N)cc2)CC1` [Example 29], the inhibition at 1 µM is -5%.

For `CC(Nc1cc(Nc2cc(C3CC3)n(C)n2)ncn1)c1ccc(F)cc1F` (stereo not drawn) [Example 47], the inhibition at 1 µM was found to be 25%.

Turning to `CC(Nc1cc(Nc2cc(C3CC3)[nH]n2)ncn1)c1ccc(F)cn1` (stereo not drawn) [Example 45, N4-(5-cyclopropyl-1H-pyrazol-3-yl)-N6-(1-(5-fluoropyridin-2-yl)ethyl)pyrimidine-4,6-diamine], the “% Inhibition@ 1 μM (TrkA(h))” value was determined as 100%.

Regarding `CCn1nc(Nc2cc(NC(C)c3ccc(F)cc3F)ncn2)cc1C1CC1` (stereo not drawn) [Example 48], the inhibition at 1 µM turned out to be 10%.

In the case of `C[C@H](Nc1ncnc(Nc2cc(C3CC3)[nH]n2)c1F)c1ccc(F)cc1` [Example 27], the inhibition at 1 µM turned out to be 87%.

`CN(C)CC(Nc1cc(Nc2cc(C3CC3)[nH]n2)ncn1)c1ccccc1` (stereo not drawn) [Example 56]: the inhibition at 1 µM was 67%.

`C[C@H](Nc1ncnc(Nc2cc(C3CC3)[nH]n2)n1)c1ccc(F)cc1F` [Example 58]: the inhibition at 1 µM was found to be 100%.

As for `CC(Nc1cc(Nc2cc(C3CC3)n(C(=O)OC(C)(C)C)n2)ncn1)c1c(F)cccc1F` (stereo not drawn) [Example 31], the inhibition at 1 µM is 99%.

For the molecule `CCCc1cc(Nc2cc(NC(C)c3ccc(F)cc3F)ncn2)n[nH]1` (stereo not drawn) [Example 51], the inhibition at 1 µM turned out to be 100%.

Turning to `C[C@H](Nc1cc(Nc2cc(C3CC3)[nH]n2)ncn1)c1ccc(F)cc1Cl` [Example 54], the inhibition at 1 µM was found to be 100%.

As for `CC(Nc1cc(Nc2cc(C3CC3)[nH]n2)ncn1)c1ccc(F)cn1` (stereo not drawn) [Example 43, N4-(5-cyclopropyl-1H-pyrazol-3-yl)-N6-(1-(5-fluoropyridin-2-yl)ethyl)pyrimidine-4,6-diamine], the inhibition at 1 µM was 95%.

For `C[C@H](Nc1cc(Nc2cc(C3CC3)[nH]n2)ncn1)c1ccc(F)cc1` [Example 23, (S)—N4-(5-cyclopropyl-1H-pyrazol-3-yl)-N6-(1-(4-fluorophenyl)ethyl)pyrimidine-4,6-diamine], the inhibition at 1 µM was 99%.

Consider `C[C@H](Nc1ncnc(Nc2cc(C3CC3)[nH]n2)n1)c1ccc(F)cc1Cl` [Example 59], for which the inhibition at 1 µM turned out to be 100%.

Take `CC(Nc1cc(Nc2cc(C3CC3)[nH]n2)ncn1)c1ccc(F)cn1` (stereo not drawn) [Example 57, N4-(5-cyclopropyl-1H-pyrazol-3-yl)-N6-(1-(5-fluoropyridin-2-yl)ethyl)pyrimidine-4,6-diamine]: the “% Inhibition@ 1 μM (TrkA(h))” value came out at 95%.

`C[C@@H](Nc1cc(Nc2cc(C3CC3)[nH]n2)ncn1)c1ccc(F)cc1F` [Example 33]: the inhibition at 1 µM came out at 60%.

On to `OCC(Nc1cc(Nc2cc(C3CC3)[nH]n2)ncn1)c1ccc(F)cc1` (stereo not drawn) [Example 40], for which the inhibition at 1 µM worked out at 101%.

As to `COCC(Nc1cc(Nc2cc(C3CC3)[nH]n2)ncn1)c1ccccc1` (stereo not drawn) [Example 55], the inhibition at 1 µM was found to be 85%.

On to `Cc1c(Nc2cc(C3CC3)[nH]n2)ncnc1N[C@@H](C)c1ccc(F)cc1` [Example 24], for which the inhibition at 1 µM was determined as 31%.

Take `CC(Nc1cc(Nc2cc(C3CC3)[nH]n2)ncn1)c1ccc(F)cn1` (stereo not drawn) [Example 52, N4-(5-cyclopropyl-1H-pyrazol-3-yl)-N6-(1-(5-fluoropyridin-2-yl)ethyl)pyrimidine-4,6-diamine]: the “% Inhibition@ 1 μM (TrkA(h))” value is reported as 101%.

Consider `C[C@H](Nc1cc(Nc2cc(C3CC3)[nH]n2)nc(N)n1)c1ccc(F)cc1F` [Example 53], for which the inhibition at 1 µM was 100%.

For `C[C@H](Nc1ncnc(Nc2cc(C3CC3)[nH]n2)c1C#N)c1ccc(F)cc1` [Example 26], the inhibition at 1 µM worked out at 49%.

For `c1ccc(C(CN2CCOCC2)Nc2cc(Nc3cc(C4CC4)[nH]n3)ncn2)cc1` (stereo not drawn) [Example 38], the inhibition at 1 µM turned out to be 71%.

Regarding `CC(Nc1cc(Nc2cc(C3CC3)[nH]n2)ncn1)c1cc(F)ccc1F` (stereo not drawn) [Example 35], the inhibition at 1 µM was determined as 99%.

`C[C@H](Nc1ncnc(Nc2cc(C3CC3)[nH]n2)c1Cl)c1ccc(F)cc1` [Example 28, (S)-5-chloro-N4-(5-cyclopropyl-1H-pyrazol-3-yl)-N6-(1-(4-fluorophenyl)ethyl)pyrimidine-4,6-diamine]: the inhibition at 1 µM was determined as 56%.

With `CC(Nc1cc(Nc2cc(C3CC3)[nH]n2)ncn1)c1ccc(F)cn1` (stereo not drawn) [Example 46, N4-(5-cyclopropyl-1H-pyrazol-3-yl)-N6-(1-(5-fluoropyridin-2-yl)ethyl)pyrimidine-4,6-diamine], the “% Inhibition@ 1 μM (TrkA(h))” value was found to be 98%.

A word on the inhibition: it is the drop in the measured response relative to a control, in per cent.
